Results as given in paper PMC8493801, “Exploring the Monoterpene Indole Alkaloid Scaffold for Reversing P-Glycoprotein-Mediated Multidrug Resistance in Cancer” (Pharmaceuticals, 2021).

Columns and labels:
[1] = test system: human ABCB1-gene transfected L5178Y subline (MDR); conditions: for RR (relative resistance ratio) = IC50MDR/IC50PAR: RR ≤ 0.5 means CS effect
[2] = test system: sensitive L5178Y mouse T-lymphoma cells (PAR); test: MTT antiproliferative assay, sensitive cells; format: cell-based; conditions: 72 h, mean ± SD
Experimental: (§1) Non-cancer mouse embryonic fibroblasts (NIH/3T3) were also used.
(§2) L5178Y mouse T-lymphoma cells (ECACC catalog no. 87111908, US FDA, Silver Spring, MD, USA) were transfected with the pHa MDR1/A retrovirus as previously reported. The ABCB1 (P-gp) overexpressing cells were selected by culturing the infected cells with 60 ng/mL of colchicine (Sigma-Aldrich Chemie GmbH, Steinheim, Germany) to preserve the MDR phenotype. L5178Y (parental, PAR) mouse T-cell lymphoma cells and the human ABCB1-transfected subline were cultured in McCoy’s 5A supplemented with 10% heat-inactivated horse serum, 100 U/L L-glutamine, and 100 mg/L penicillin-streptomycin mixture, all obtained from Sigma-Aldrich. The mouse embryonic fibroblast (NIH 3T3) cell line was purchased from ATCC (CRL-1658) and was cultured in DMEM medium supplemented with 10% fetal bovine serum. These adherent cells were detached using 0.25% trypsin and 0.02% EDTA for 5 min at 37 °C. Before the antiproliferative assay using NIH 3T3 cell line, the cells were seeded in untreated 96-well flat bottomed microtiter plates, following a 4 h incubation period in a humidified atmosphere (5% CO2, 95% air) at 37 °C.
The assay was performed according to the previously applied experimental settings.

[3] = test system: mouse embryonic fibroblasts (NIH/3T3); test: MTT antiproliferative assay, non-cancer cells; format: cell-based; conditions: for SI C/B (Selectivity Index): IC50 NIH/3T3 / IC50 MDR; for SI C/A (Selectivity Index): IC50 NIH/3T3 / IC50 PAR; for IC50: NIH3T3, non-cancer mouse embryonic fibroblasts, MTT, read-out: IC50 NIH/3T3 (C)
Experimental: as §1
In addition, the antiproliferative activity of the compounds was also evaluated on non-cancerous mouse embryonic fibroblast cells (NIH/3T3), whose values were compared with those of PAR and MDR cells by evaluation of the selective index (SI) values. […] The highest selective index values (SIC/A = 9.39; SIC/B = 10.79) were found for the derivative bearing the trimethoxyphenyl substituent (17).
as §2

[4] = test system: human ABCB1-transfected L5178Y mouse lymphoma cells; test: Checkerboard combination assay with doxorubicin; format: cell-based; design: key to CI at ED50 (combination index): CI <1 synergy, =1 additive, >1 antagonism; conditions: MDR cells; for CI at ED50 (combination index): best ratio
Experimental: The in vitro interactions between the compounds and the well-known antitumor drug and P-gp substrate, doxorubicin, were evaluated in a combination chemotherapy model on human ABCB1-transfected mouse T-lymphoma cells. The nature of drug–drug interactions was assessed by determination of the combination index (CI) using the Chou and Talalay method (Figure 1), and therefore evaluated as synergistic (CI < 1), additive (CI = 1), or antagonistic (CI > 1).
Doxorubicin (2 mg/mL, Teva Pharmaceuticals, Budapest, Hungary) was serially diluted horizontally in 100 µL as previously described, starting with 8.6 µM. The resistance modifier was subsequently diluted vertically in 50 µL; the starting concentration was determined based on the IC50. […] The checkerboard plates were kept for 72 h at 37 °C in a CO2 incubator, and at the end of the incubation period, the cell growth was determined by MTT staining method, as described earlier. Drug interactions were evaluated using Calcusyn software. Each dose–response curve (for individual agents as well as combinations) was fit to a linear model using the median effect equation in order to obtain the median effect value (corresponding to the IC50) and slope (m). The goodness-of-fit was assessed using the linear correlation coefficient, r, and only data from analysis with r > 0.90 were presented. The extent of interaction between drugs was expressed using the combination index, in which a CI value close to 1 indicates additivity, while a CI < 1 is defined as synergy and a CI > 1 as antagonism.

[5] = molecular target: T1, recombinant human P-gp membranes (Homo sapiens, UniProt P08183); test: P-gp ATPase activity assay (Pgp-Glo); format: biochemical; conditions: 25 µM; for % basal P-gp activity: basal activity = 100%
T1 construct: purchased Promega
Source text: Once it was established that ATP hydrolysis is directly associated with the P-gp efflux activity, the interaction mode between selected compounds (12, 17, 18, 20, and 29) and this transporter protein was further investigated using human P-gp membranes in the ATPase activity assay (P-gp-Glo^TM) to gather insights about their interaction with P-gp activity, namely, as stimulators or inhibitors. This ATPase activity assay is based on the ATP dependence of the light-generating reaction of firefly luciferase. After incubating P-gp with ATP, the reaction is stopped, and the ATP consumption by P-gp is given by a luciferase-generated luminescent signal due to the remaining unmetabolized ATP. Thus, a greater decrease in the signal means a higher P-gp activity.
Sodium orthovanadate (Vanadate, Na3VO4) is an inhibitor of P-gp ATPase activity; thus, after treating samples with vanadate, no P-gp-dependent ATP consumption is observed. Therefore, the P-gp basal ATP consumption (basal activity) is defined as the difference between the luminescent signal of samples treated with vanadate and untreated. Consequently, the tested compounds were ranked as stimulators or inhibitors by comparing their P-gp ATPase activity with the basal activity. Verapamil (0.5 mM), a known P-gp substrate and activator of the ATPase activity of this transporter, thus causing a decrease in the percentage of luminescence of luciferase when compared with untreated samples (Figure 2), was used as control. The results are represented in Figure 2 as the difference between the luminescence of luciferase observed when treated with the compounds and with vanadate in comparison with the basal activity (100%).
The P-glycoprotein ATPase activity was determined using the Pgp-Glo^TM Assay Systems Promega kit according to the manufacturer’s instructions. Briefly, 20 µL of recombinant human P-gp membranes (1.25 mg/mL), expressing high levels of human P-gp, were incubated in 20 µL of Pgp-Glo^TM assay buffer for 5 min at 37 °C. Compounds were tested at 25 µM sodium orthovanadate (Na3VO4, 0.25 mM) as an inhibitor control, verapamil as a substrate control (0.5 mM), and DMSO at 2% as solvent control. The reaction was initiated by adding 10 µL of 25 mM MgATP and incubated at 37 °C for 40 min. The ATPase reaction was stopped, and after adding 50 µL of ATP Detection Reagent, the samples were incubated at room temperature for 20 min. The luciferase-generated luminescent signal emitted was measured in a CLARIOstar Plus plate reader (BMG Labtech, UK) at 580 nm. The % of basal P-gp activity was calculated through the ratio between the luminescence measured of the P-gp ATPase activity of each compound and the basal activity according to Equation (4).
(4) % basal P-gp activity = LumNa3VO4−Lumtreated/LumNa3VO4−Lumuntreated×100%
Figure 2 Effect of compounds 12, 17, 18, 20, 29, and verapamil (VER) on P-gp ATPase activity. The compounds are identified as P-gp substrates if they stimulate its basal activity (>100%) or as modulators when inhibiting basal activity (<100%). Compounds were tested at 25 µM and verapamil at 0.5 mM. Results were calculated as the means ± SD from experiments performed in triplicates.

T1 sequence (P08183 whole entry): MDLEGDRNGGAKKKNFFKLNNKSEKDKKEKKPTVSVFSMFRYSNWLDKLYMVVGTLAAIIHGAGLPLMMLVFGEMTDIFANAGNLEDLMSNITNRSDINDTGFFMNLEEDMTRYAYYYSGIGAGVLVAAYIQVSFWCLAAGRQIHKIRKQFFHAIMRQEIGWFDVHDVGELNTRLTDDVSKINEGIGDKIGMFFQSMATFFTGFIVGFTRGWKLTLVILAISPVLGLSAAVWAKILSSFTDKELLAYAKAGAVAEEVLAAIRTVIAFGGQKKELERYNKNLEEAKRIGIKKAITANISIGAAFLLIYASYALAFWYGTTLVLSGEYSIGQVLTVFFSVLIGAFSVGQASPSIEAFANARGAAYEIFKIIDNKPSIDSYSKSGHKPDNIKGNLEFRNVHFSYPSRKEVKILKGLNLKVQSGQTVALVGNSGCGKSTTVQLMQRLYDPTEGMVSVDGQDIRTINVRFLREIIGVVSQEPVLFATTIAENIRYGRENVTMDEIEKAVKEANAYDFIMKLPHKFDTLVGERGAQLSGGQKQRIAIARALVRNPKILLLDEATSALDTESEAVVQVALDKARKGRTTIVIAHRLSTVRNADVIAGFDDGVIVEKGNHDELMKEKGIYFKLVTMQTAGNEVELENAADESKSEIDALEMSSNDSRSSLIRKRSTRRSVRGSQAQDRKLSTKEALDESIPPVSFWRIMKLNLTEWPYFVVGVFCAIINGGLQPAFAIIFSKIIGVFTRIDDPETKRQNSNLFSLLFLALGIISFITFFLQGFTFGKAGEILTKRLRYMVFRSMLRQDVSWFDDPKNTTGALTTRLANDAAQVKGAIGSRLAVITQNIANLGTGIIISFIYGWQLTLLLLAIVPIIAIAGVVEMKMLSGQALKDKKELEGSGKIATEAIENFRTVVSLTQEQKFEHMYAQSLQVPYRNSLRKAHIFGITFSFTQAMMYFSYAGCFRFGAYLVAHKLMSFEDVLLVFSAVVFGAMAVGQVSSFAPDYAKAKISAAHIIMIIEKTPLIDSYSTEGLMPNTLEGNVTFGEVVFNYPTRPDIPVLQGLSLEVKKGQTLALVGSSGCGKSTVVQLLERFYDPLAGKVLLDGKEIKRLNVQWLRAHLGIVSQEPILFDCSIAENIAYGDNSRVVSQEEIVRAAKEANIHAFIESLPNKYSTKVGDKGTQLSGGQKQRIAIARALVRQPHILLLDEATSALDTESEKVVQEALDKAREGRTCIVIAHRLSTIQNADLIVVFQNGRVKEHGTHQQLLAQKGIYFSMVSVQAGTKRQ

Structure (SMILES) | IC50 [1] [µM] | RR (relative resistance ratio) = IC50MDR/IC50PAR [1] | IC50 [2] [µM] | SI C/B (Selectivity Index) [3] | SI C/A (Selectivity Index) [3] | IC50 [3] [µM] | Interaction [4] | CI at ED50 (combination index) [4] | Effect on P-gp ATPase activity [5] | % basal P-gp activity [5] [%]
CCC1CN(C)C2Cc3c([nH]c4ccccc34)C(=NN=Cc3cc4ccccc4[nH]3)CC1C2C(=O)OC (stereo not drawn) [Compound 20, 3-[((1H-indol-2-yl)methylene)hydrazineylidene]dregamine] | 8.73 ± 0.53 | 1.00 | 8.72 ± 0.53 | 1.57 | 1.58 | 13.8 ± 0.69 | Strong Synergism | 0.291 | inhibitors of P-gp ATPase activity | < 100
CCC1CN(C)C2Cc3c([nH]c4ccccc34)C(=NN=Cc3ccc4ccccc4c3)CC1C2C(=O)OC (stereo not drawn) [Compound 18, 3-[(2″-naphthalenylmethylene)hydrazineylidene]dregamine] | 9.58 ± 0.74 | 0.85 | 11.3 ± 0.84 | 1.22 | 1.04 | 11.7 ± 1.53 | Strong Synergism | 0.285 | inhibitors of P-gp ATPase activity | < 100
CCC1CN(C)C2Cc3c([nH]c4ccccc34)C(=NN=Cc3ccc(C(F)(F)F)cc3)CC1C2C(=O)OC (stereo not drawn) [Compound 10, 3-[(4″-(trifluoromethyl)benzylidene)hydrazineylidene]dregamine] | 11.7 ± 0.67 | 0.56 | 20.7 ± 0.8 | 1.06 | 0.60 | 12.4 ± 1.58 | Strong Synergism | 0.272 |  | 
CCC1CN(C)C2Cc3c([nH]c4ccccc34)C(=NNC(=O)NCCCc3ccccc3)CC1C2C(=O)OC (stereo not drawn) [Compound 32, 3-[2″-((3-phenylpropyl)carbamoyl)hydrazineylidene]dregamine] | 4.46 ± 1.38 | 0.65 | 6.82 ± 0.64 | 2.13 | 1.39 | 9.51 ± 0.52 | Synergism | 0.384 |  | 
CCC1CN(C)C2Cc3c([nH]c4ccccc34)C(=NNC(=O)NC(C)(C)C)CC1C2C(=O)OC (stereo not drawn) [Compound 23] | 12.3 ± 1.8 |  | 26.3 ± 0.5 | >8.11 | >3.81 | > 100 | Strong Synergism | 0.163 |  | 
CCC1CN(C)C2Cc3c([nH]c4ccccc34)C(=NN=Cc3ccc(OCc4ccccc4)cc3)CC1C2C(=O)OC (stereo not drawn) [Compound 16, 3-[(4″-(benzyloxy)benzylidene)hydrazineylidene]dregamine] | 5.86 ± 0.54 | 0.66 | 8.93 ± 0.75 | 3.12 | 2.04 | 18.3 ± 1.3 | Synergism | 0.34 |  | 
CCC1CN(C)C2Cc3c([nH]c4ccccc34)C(=NNC(=O)Nc3ccc([N+](=O)[O-])cc3)CC1C2C(=O)OC (stereo not drawn) [Compound 30, 3-[2″-((4‴-nitrophenyl)carbamoyl)hydrazineylidene]dregamine] | 4.83 ± 0.05 | 0.80 | 6.04 ± 0.36 | 2.90 | 2.32 | 14 ± 0.92 | Synergism | 0.423 |  | 
CCC1CN(C)C2Cc3c([nH]c4ccccc34)C(=NNC(=O)NC3CCCCC3)CC1C2C(=O)OC (stereo not drawn) [Compound 24] | 5.69 ± 0.71 |  | 12.85 ± 0.12 | 4.68 | 2.07 | 26.6 ± 0.31 | Synergism | 0.301 |  | 
CCCC=NN=C1CC2C(CC)CN(C)C(Cc3c1[nH]c1ccccc31)C2C(=O)OC (stereo not drawn) [Compound 3, 3-[(butylidene)hydrazineylidene]dregamine] | 31.5 ± 1.84 | 0.59 | 53.1 ± 3.16 | >3.17 | >1.88 | > 100 | Synergism | 0.305 |  | 
CCC1CN(C)C2Cc3c([nH]c4ccccc34)C(=NNC(=O)Nc3ccc(C(F)(F)F)cc3)CC1C2C(=O)OC (stereo not drawn) [Compound 31, 3-[2″-((4‴-(trifluoromethyl)phenyl)carbamoyl)hydrazineylidene]dregamine] | 6.48 ± 0.25 | 0.93 | 6.97 ± 0.12 | 1.03 | 0.96 | 6.7 ± 0.06 | Strong Synergism | 0.296 |  | 
CCC1CN(C)C2Cc3c([nH]c4ccccc34)C(=NN=Cc3cccc([N+](=O)[O-])c3)CC1C2C(=O)OC (stereo not drawn) [Compound 6, 3-[(3″-nitrobenzylidene)hydrazineylidene]dregamine] | 8.72 ± 0.52 | 0.73 | 11.9 ± 1.09 | 1.65 | 1.21 | 14.4 ± 1.36 | Strong Synergism | 0.279 |  | 
